# How the values were obtained:
# Assay type in all cases: in vivo
# wheat (variety Hereward) = test: Pre-emergence safening on wheat, seed treated with safener, general crop injury; conditions: 250 g/ha compound of formula (I) sprayed the day after planting, evaluated after 21 days; for Percentage damage, wheat treated with cloquintocet-mexyl: seed treated with cloquintocet-mexyl at 0.25 g per kg seed, mean of two replicates; for Percentage damage, untreated wheat: seed without safener, mean % visual phytotoxicity of two replicates
# Method: (§1) Maize (variety Claxxon) and wheat (variety Hereward) seeds were treated with a herbicide safener at a rate of 0.2 g safener per kg seed (maize) and 0.25 g safener per kg seed (wheat) prior to sowing. Treated and untreated seeds were sown into standard soil in troughs. The safeners used were N-(2-methoxybenzoyl)-4-Rmethylaminocarbonyl)aminoThenzenesulfonamide (safener A in Table 2) and cloquintocet-mexyl.
# (§2) The day after planting the troughs were sprayed with an aqueous spray solution prepared by dissolving the technical active ingredient in an organic solvent and diluting with deionised water to give a final dose of 250 g/ha of a compound of formula (I).
# (§3) The spray solution was applied with a cabinet tracksprayer with a flat fan nozzle (Teejet 11002VS) and an application volume of 200 L/ha (at 2 bar).
# (§4) The test plants were then grown on in a glasshouse under controlled conditions (at 24/18° C. day/night; 16 hours light; 65% humidity) and watered twice a day. After 21 days the test was evaluated for general crop injury (100% equals total damage to plant; 0% equals no damage to plant).
# (§5) Results are shown below in Table 2 as the mean % visual phytotoxicity of two replicates.
# Maize (variety Claxxon) = test: Pre-emergence safening on corn, seed treated with safener, general crop injury; conditions: 250 g/ha compound of formula (I) sprayed the day after planting, evaluated after 21 days; for Percentage damage, corn treated with safener A: seed treated with safener A at 0.2 g per kg seed, mean of two replicates; for Percentage damage, untreated corn: seed without safener, mean % visual phytotoxicity of two replicates
# Method: as §1, §2, §3, §4, §5
# soya (variety Nikko) = test: Post-emergence crop safening on soya, general crop injury; conditions: compound of formula (I) alone at 200 g/ha, post-emergence spray at 2-3 leaf stage, evaluated after 21 days; 100% = total damage, 0% = no damage; single replicate
# Method: Maize (variety Garland) and soya (variety Nikko) seeds were sown into standard soil in pots and cultivated under controlled conditions in a glasshouse (at 24/18° C. day/night; 16 hours light; 65% humidity). […] All the compounds used for the spray solution were present as technical material and the safeners were either an EC, SC or WP formulation respectively or technical material. In addition a non-ionic surfactant (Tween 20) was added to form a 0.25% v/v solution. The spray solution was applied with a cabinet tracksprayer with a flat fan nozzle (Teejet 11002VS) and an application volume of 200 L/ha (at 2 bar). The test plants were then grown on in a glasshouse under controlled conditions (at 24/18° C. day/night; 16 hours light; 65% humidity) and watered twice a day. […] Results are shown below in Table 3 as the mean % visual phytotoxicity of two replicates and in Table 4 as the mean % visual phytotoxicity of a single replicate.
# Maize (variety Garland) = test: Post-emergence crop safening on maize, general crop injury; conditions: post-emergence spray at 2-3 leaves; 500 g/ha Compound 41 alone or with 100 g/ha safener; 0.25% v/v Tween 20; evaluated after 21 days; mean of two replicates
# Method: Maize (variety Garland) and soya (variety Nikko) seeds were sown into standard soil in pots and cultivated under controlled conditions in a glasshouse (at 24/18° C. day/night; 16 hours light; 65% humidity).
# When the plants were at the vegetative stage of 2-3 leaves they were sprayed with an aqueous spray solution containing a compound of formula (I) alone and in combination with a number of different herbicide safeners. All the compounds used for the spray solution were present as technical material and the safeners were either an EC, SC or WP formulation respectively or technical material. In addition a non-ionic surfactant (Tween 20) was added to form a 0.25% v/v solution.
# as §3, §4
# Results are shown below in Table 3 as the mean % visual phytotoxicity of two replicates and in Table 4 as the mean % visual phytotoxicity of a single replicate.
SMILES,"Percentage damage, wheat treated with cloquintocet-mexyl (wheat (variety Hereward)) [%]","Percentage damage, untreated wheat (wheat (variety Hereward)) [%]","Percentage damage, corn treated with safener A (Maize (variety Claxxon)) [%]","Percentage damage, untreated corn (Maize (variety Claxxon)) [%]","Percentage damage caused to soya (mean % visual phytotoxicity, general crop injury) (soya (variety Nikko)) [%]",Percentage damage caused to maize (Maize (variety Garland)) [%]
O=C1CCCCN1Cc1ccccc1NS(=O)(=O)C(F)(F)F [Compound 5],20,45,25,55,–,–
CCOC(=O)N(c1ccccc1CN1CCCCC1=O)S(=O)(=O)C(F)(F)F [Compound 7],30,50,10,98,–,–
CCOC(=O)N(c1ccccc1CN1CCCN(C)S1(=O)=O)S(=O)(=O)C(F)(F)F [Compound 146],17.5,40,0,22.5,–,–
CCOC(=O)N(c1ccccc1CN1CCCCS1(=O)=O)S(=O)(=O)C(F)(F)F [Compound 133],5,25,10,20,–,–
O=C1CCCN1Cc1ccccc1NS(=O)(=O)C(F)(F)F [Compound 1],5,35,5,30,–,–
CC1(C)CC(=O)N(Cc2ccccc2N(C(=O)OCCl)S(=O)(=O)C(F)(F)F)O1 [Compound 21],5,20,20,30,–,–
CCOC(=O)N(c1ccccc1CN1CCC(C)(C(F)(F)F)OC1=O)S(=O)(=O)C(F)(F)F (stereo not shown) [Compound 103],0,15,0,10,–,–
O=C1NCCCN1Cc1ccccc1NS(=O)(=O)C(F)(F)F [Compound 53],10,40,5,40,–,–
CCC(=O)N(c1ccccc1CN1CCCC(SC)C1=O)S(=O)(=O)C(F)(F)F (stereo not shown) [Compound 16],15,40,2.5,86,–,–
O=C1COCCN1Cc1ccccc1NS(=O)(=O)C(F)(F)F [Compound 41],10,35,5,80,30,25
CCCC(=O)N(c1ccccc1CN1CCCCC1=O)S(=O)(=O)C(F)(F)F [Compound 6],10,30,5,80,–,–
CC1(C)CC(=O)N(Cc2ccccc2NS(=O)(=O)C(F)(F)F)O1 [Compound 20],15,25,0,40,–,–
CN1CCCN(Cc2ccccc2N(C(=O)OCCl)S(=O)(=O)C(F)(F)F)S1(=O)=O [Compound 145],5,10,0,20,–,–
CC(C)COC(=O)N(c1ccccc1CN1CCCN(C)S1(=O)=O)S(=O)(=O)C(F)(F)F [Compound 147],5,25,2.5,15,–,–
CC1(C)CN(Cc2ccccc2NS(=O)(=O)C(F)(F)F)C(=O)O1 [Compound 85],15,40,15,65,–,–
CC1(C(F)(F)F)CCN(Cc2ccccc2N(C(=O)OCCl)S(=O)(=O)C(F)(F)F)C(=O)O1 (stereo not shown) [Compound 102],0,10,0,5,–,–
CCC1(C(F)(F)F)CCN(Cc2ccccc2NS(=O)(=O)C(F)(F)F)C(=O)O1 (stereo not shown) [Compound 106],–,–,–,–,15,–

# Source: patent publication US20140329679A1, “HERBICIDAL COMPOSITIONS COMPRISING TRIFLUOROME THANESULFONANILIDES AND SAFENERS” (priority 2011, published 2014)
